Results on 2 compounds are retold here after patent US9522930B2, “Chartreusin analogues” (Leibniz-Institut Für Naturstoff-Forschung Und …, priority 2012, dated 2016).

The subject of data set [1] is human chronic myeloid leukemia cells K-562 (DSM ACC 10). The data set can be described thus: Growth inhibition (antiproliferative effect) of K-562. Format: cell-based. The following applies: for GI50: Homo sapiens, K562, read-out: antiproliferative GI50, K-562.
Procedure: (§2) Compounds were assayed against human umbilical vein endothelial cells HUVEC (ATCC CRL-1730) and human chronic myeloid leukemia cells K-562 (DSM ACC 10) for their antiproliferative effects (GI50) and against human cervix carcinoma cells HeLa (DSM ACC 57) for their cytotoxic effects (CC50) as previously described (Scherlach, K., Partida-Martinez, L. P., Dahse, H. M. & Hertweck, C. Antimitotic rhizoxin derivatives from a cultured bacterial endosymbiont of the rice pathogenic fungus Rhizopus microsporus. Journal of the American Chemical Society 128, 11529-11536 (2006)).
Data set [2] relates to defined DNA fragments (1.5 kb). The data set can be described thus: Laser-induced DNA-adduct assay, gel electrophoresis with a specified DNA fragment. The following applies: 1% agarose gel; for electrophoretic band shift of DNA fragment, irradiated: blue laser 405 nm, 20 mW, 30 sec. Here is the method: However, the situation changed substantially under photoinducing conditions. A GaN laser has been used for an induced DNA-adduct assay because a laser warrants high spectral purity combined with a high power density. Furthermore, the emission wavelength (405 nm) fits to the absorption maximum of chartreusin, which is a prerequisite to efficiently activating the molecule.
For the assay defined DNA fragments (1.5 kb) were treated with either chartreusin or 1-vinylchartreusin, and the effect of blue laser irradiation was compared to negative controls incubated in the dark or with daylight.
DNA-Adduct formation was carried out using a pure specified DNA fragment with the following sequence:
8 μL of water, 2 μL of DNA (25.7 ng/μL) were either directly treated with 2 μL loading buffer or were treated additionally with 0.1 μL (1 mg/mL in DMSO) substrate. The solution was irradiated with a laser (405 nm, 20 mW) for 30 sec. and then treated with loading buffer. The DNA was loaded on 1% agarose gel with ethidium bromide operating at 120 V (FIG. 2).

For data set [3], the system named is Mycobacterium vaccae 10670. The data set can be described thus: Antimicrobial activity (MIC), test strain Mycobacterium vaccae 10670. Format: cell-based. To be noted: Mycolicibacterium vaccae; Test strain: Mycobacterium vaccae 10670; read-out: Antimicrobial MIC value, Mycobacterium vaccae. From the text: Antimicrobial (MIC value [μM]), cytotoxic (CC50 [μM] for HeLa) and antiproliferative (GI50 [μM] for HUVEC, K-562, HT-29 and MEL-HO) activities of chartreusin and its derivatives. Test strain: Mycobacterium vaccae 10670.

Another data set can be described thus: in vitro. To be noted: human.
Data set [4] deals with vancomycin-resistant Enterococcus (VRE). The data set can be described thus: VRE assay (MIC). The class given is cell-based. The following applies: read-out: MIC against VRE.
The test system of data set [5] is Hs27 foreskin fibroblast cells (ATCC, CRL-1634). In words: Growth inhibition of Hs27 in the presence or absence of light. Format: cell-based, human. To be noted: for GI50: Homo sapiens, 72 hours. An excerpt: In order to verify the extraordinary in vitro photo induced activity a human foreskin fibroblast cell line (Hs27) has been chosen to evaluate the antiproliferative activity against human cells. During this assay a control group without light has been tested under standard conditions. One group was irradiated with a very homogenous LED cluster under the same conditions. […] This indicates the high potential of this new chartreusin-like structure motive as a drug for epithel cell carcinomas. Not only superficial areas like the skin in case of melanoma can be irradiated also endoscopic accessible areas like the bladder, colon, esophageal or laryngeal cancers are conceivable for a treatment.
The Hs27 foreskin fibroblast cells (ATCC, CRL-1634) were grown in RPMI 1640 (CAMBREX 12-167F) supplemented with 500 μl/l gentamicin sulfate (Cambrex 17-518Z), 10% heat inactivated fetal bovine serum (PAA A15-104), at 37° C. in plastic flasks (NUNC) in a humidified atmosphere containing 5% CO2.
The adherent cells of Hs27 were harvested at the logarithmic growth phase after soft trypsinization using 0.25% trypsin in PBS containing 0.02% EDTA (Biochrom KG L2163).
Hs27 cells were seeded with 1×10^4 cells per 0.1 mL per well of the 96-well microplates (NUNC 167008). Then, the plates were prepared with dilutions of the compounds.
The influence of the different dilutions of compounds in the absence or presence of light (distance to the cells: 4 cm) were assayed for 72 hours at 37° C. in a humidified atmosphere containing 5% CO2. After incubation time, the effect of compounds in the absence or presence of light were analyzed in compare to negative control.
For this, the adherent Hs27 cells were fixed by glutaraldehyde (MERCK 1.04239.0250) and stained with a 0.05% solution of methylene blue (SERVA 29198) for 15 min. After gentle washing, the stain was eluted by 0.2 mL of 0.33 N HCl in the wells. The optical densities were measured at 660 nm in a microplate reader (Tecan “Sunrise”, Austria). Under the experimental conditions, the signals from the methylene blue are proportional to the number of viable cells.

The test system of data set [6] is human HT-29 colon adenocarcinoma cells (ACC 299). The data set can be described thus: Growth inhibition of HT-29 in the presence or absence of light. The class given is cell-based. Here is the method: (§1) The human HT-29 colon adenocarcinoma cells (ACC 299) and the human MEL-HO (ACC 62) melanoma cells were grown as previously described (Ueberschaar, N.; Dahse, H.-M.; Bretschneider, T.; Hertweck, C. Angew. Chem. Int. Ed. 2013, 52, 6185-6189).

The test system of data set [7] is human umbilical vein endothelial cells HUVEC (ATCC CRL-1730). In words: Growth inhibition (antiproliferative effect) of HUVEC. The class given is cell-based. To be noted: for GI50: Homo sapiens, read-out: antiproliferative GI50, HUVEC.
Procedure: as §2
Data set [8] has as its system human MEL-HO (ACC 62) melanoma cells. The data set can be described thus: Growth inhibition of MEL-HO in the presence or absence of light. Format: cell-based. On the procedure: as §1
Data set [9] can be described thus: Cytotoxicity against HeLa. To be noted: human, HeLa cells (human cervix carcinoma, DSM ACC 57).
Procedure: as §2
The test system of data set [10] is human cervix carcinoma cells HeLa (DSM ACC 57). The data set can be described thus: Cytotoxicity against HeLa. To be noted: HeLa, standard conditions.
Procedure: as §2
The subject of data set [11] is methicillin-resistant Staphylococcus aureus (MRSA). The data set can be described thus: Antibiotic activity against MRSA. The class given is cell-based.
Setting [12] is: Hs27, with light vs without light.
The mark [13] stands for this setting: Homo sapiens, HT-29, 8 h, HT-29, 420 nm, 3 × 8 h, read-out: antiproliferative GI50, HT-29, 420 nm, 3 × 8 h.
Where [14] appears, read: Homo sapiens, HT-29, HT-29, w/o light, read-out: antiproliferative GI50, HT-29, w/o light.
Where [15] appears, read: Homo sapiens, HT-29, HT-29, with light (blue LED), read-out: GI50 with light, HT-29.
Where [16] appears, read: Homo sapiens, HT-29, HT-29, without light (absence of light), read-out: GI50 without light, HT-29.
[17] abbreviates: 8 h, read-out: antiproliferative GI50, Mel-HO, 420 nm, 3 × 8 h.
Where [18] appears, read: read-out: antiproliferative GI50, Mel-HO, w/o light.

The structures appear in SMILES notation. ≈ marks a conversion by molar mass, not a printed value. Like-named read-outs stand apart in the source and are kept apart here.

Procedure for in vitro: as §2

For `CO[C@H]1[C@@H](O)[C@@H](C)O[C@H](O[C@H]2[C@H](Oc3cccc4c(O)c5c(=O)oc6ccc(C)c7c(=O)oc(c34)c5c67)O[C@H](C)[C@H](O)[C@@H]2O)[C@@H]1O` [Chartreusin], the GI50 was 1560 nM in data set [1]; 7.65 µM in data set [6] (setting [13]); 7.96 µM in data set [6] (setting [14]); 7.65 µM in [6] (setting [15]); 7 to 9.4 µM in [6] (setting [16]); 6.24 µM in [7]. In addition, the GI50 in data set [8] (setting [17]) was 2340 nM; in [8] (setting [18]) it was 1560 nM. The “electrophoretic band shift of DNA fragment, irradiated” value in data set [2] was “electrophoretic properties of the DNA fragment could be fully reserved”. Further, the MIC in [3] was 1.2 µM (≈ 0.769 µg/mL); in [4], 9.59 to 9.76 µM (≈ 6.14 to 6.25 µg/mL). Also, in “in vitro”, the CC50 worked out at 12.6 µM. Besides, the “effect of light on antiproliferative activity, Hs27” value in data set [5] (setting [12]) was “not affected by treatment with light”.

In the case of `C=Cc1ccc2oc(=O)c3c(O)c4cccc(O[C@@H]5OC(C)[C@H](O)[C@H](O)C5O[C@H]5OC(C)[C@H](O)C(OC)[C@H]5O)c4c4oc(=O)c1c2c34` (stereo partly shown) [Vinylchartreusin, 1-Vinylchartreusin], the GI50 stood at 3060 nM in data set [1]; 0.5 µg/mL (≈ 0.766 µM) in data set [5] (light or radiation study, Hs27, irradiated with LED cluster, read-out: GI50 value with light, Hs27); 6.8 µg/mL (≈ 10.4 µM) in data set [5] (Hs27, without light, read-out: GI50 value without light, Hs27); 7.1 µM in data set [6] (HT-29, without light (absence of light), read-out: GI50 without light, HT-29); 0.61 µM in [6] (setting [13]); 7.05 µM in [6] (setting [14]). Besides, the GI50 in data set [6] (setting [15]) was 0.6 µM; in data set [6] (setting [16]), 7 to 9.4 µM; in data set [7], 32.8 µM; in data set [8] (setting [17]) it was 80 nM; in data set [8] (setting [18]) it was 110 nM. In addition, the “activity relative to chartreusin and homochartreusin, K562” value in [1] (K562, standard conditions) is “only slightly lower than chartreusin and homochartreusin”. For the same compound, in data set [2], the “electrophoretic band shift of DNA fragment, irradiated” value is on record as “clear band shift to a higher molecular mass”. Further, in data set [2] (not irradiated (dark or daylight)), the “electrophoretic band shift of DNA fragment, not irradiated” value is on record as “no shift”. This compound also yielded a CC50 in [9] of 24.7 µM. Further, the “activity relative to chartreusin and homochartreusin, HeLa” value in data set [10] was “only slightly lower than chartreusin and homochartreusin”. For the same compound, the MIC in data set [3] was 4.8 µM (≈ 3.13 µg/mL); in data set [4], 9.59 to 9.76 µM (≈ 6.26 to 6.37 µg/mL). Further, the “GI50 with light lower than without light, Hs27” value in data set [5] (setting [12]) is “more than 10 fold”. Further, the “less active than chartreusin, HUVEC” value in data set [7] (standard conditions (no photoinduction)) is recorded as “about 4 fold”. The “antibiotic activity against MRSA relative to chartreusin and ciprofloxacin” value in data set [11] is “as active as the natural product and are even more potent than the reference antibiotic ciprofloxacin”.
